Measured values reported in paper PMC6154005, “From Cell to Beak: In-Vitro and In-Vivo Characterization of Chicken Bitter Taste Thresholds” (Molecules : A Journal of Synthetic Chemistry and Natural …, 2017).
Counter-ions that a name gives are not always drawn.

Tests used:
Experiment in all cases: calcium imaging (Fluo4-AM, FLIPR) in transfected cells
Type in all cases: cell-based
Settings in all cases: agonist; HEK 293T-Galpha16gust44 cells; 2.5 mM probenecid at dye loading; lowest activating concentration, no EC50
ggTas2r7 = biological target: T1, ggTas2r7 (Gallus gallus, UniProt Q2AB81)
T1 construct: gene TAS2R7; cDNA in pcDNA5FRT, transiently expressed in HEK 293T-Galpha16gust44 cells
T1 sequence (Q2AB81 1-321): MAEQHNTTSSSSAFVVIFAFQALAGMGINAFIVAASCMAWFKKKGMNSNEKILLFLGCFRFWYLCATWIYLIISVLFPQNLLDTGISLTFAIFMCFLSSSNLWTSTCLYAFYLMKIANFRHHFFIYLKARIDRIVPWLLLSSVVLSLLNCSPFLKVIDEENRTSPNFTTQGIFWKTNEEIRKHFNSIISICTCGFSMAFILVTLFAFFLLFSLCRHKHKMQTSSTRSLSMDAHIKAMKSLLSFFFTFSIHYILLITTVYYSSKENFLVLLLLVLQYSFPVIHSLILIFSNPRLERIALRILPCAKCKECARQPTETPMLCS

ggTas2r1 = biological target: T2, ggTas2r1 (Gallus gallus, UniProt Q2AB83)
T2 construct: gene TAS2R40; cDNA in pcDNA5FRT, transiently expressed in HEK 293T-Galpha16gust44 cells
T2 sequence (Q2AB83 1-311): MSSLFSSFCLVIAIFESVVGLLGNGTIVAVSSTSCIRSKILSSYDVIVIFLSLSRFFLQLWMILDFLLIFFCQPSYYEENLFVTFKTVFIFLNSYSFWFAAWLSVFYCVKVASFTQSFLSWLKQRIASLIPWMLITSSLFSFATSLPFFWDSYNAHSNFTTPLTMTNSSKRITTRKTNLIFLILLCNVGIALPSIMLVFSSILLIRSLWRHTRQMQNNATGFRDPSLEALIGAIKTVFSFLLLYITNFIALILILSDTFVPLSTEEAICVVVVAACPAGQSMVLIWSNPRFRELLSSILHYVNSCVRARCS

ggTas2r2 = biological target: T3, ggTas2r2 (Gallus gallus, UniProt A0A1D5PXM6)
T3 construct: gene LOC101747503; cDNA in pcDNA5FRT, transiently expressed in HEK 293T-Galpha16gust44 cells
T3 sequence (A0A1D5PXM6 1-311): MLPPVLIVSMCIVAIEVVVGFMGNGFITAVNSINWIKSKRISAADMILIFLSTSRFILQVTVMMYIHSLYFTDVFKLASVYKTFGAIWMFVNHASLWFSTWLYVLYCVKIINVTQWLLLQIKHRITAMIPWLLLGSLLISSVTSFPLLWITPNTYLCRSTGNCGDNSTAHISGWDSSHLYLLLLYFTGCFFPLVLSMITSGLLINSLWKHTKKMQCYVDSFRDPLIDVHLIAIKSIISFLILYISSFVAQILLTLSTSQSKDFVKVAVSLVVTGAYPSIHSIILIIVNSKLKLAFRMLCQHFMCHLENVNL

Structure (SMILES)	Threshold Concentrations (mM) / In-Vitro (ggTas2r7)	Threshold Concentrations (mM) / In-Vitro (ggTas2r1)	Threshold Concentrations (mM) / In-Vitro (ggTas2r2)
Oc1cc(O)c2c(c1)O[C@H](c1ccc(O)c(O)c1)[C@@H](O)C2 [(+)-catechin]	0.3 mM		
C=C[C@H]1CN2CC[C@H]1C[C@H]2[C@H](O)c1ccnc2ccc(OC)cc12 [quinine hydrochloride]	0.01 mM	0.01 mM	0.01 mM
